Source: PMC6494879, “Drug resistance emergence in macaques administered cabotegravir long-acting for pre-exposure prophylaxis during acute SHIV infection” (Nature Communications, 2019)
Where two headings read alike, the source gives them in different places.

Columns and labels:
[1] = tested on: SIV integrase WT (SIV IN RTV pseudovirus); assay: organism not typed; type: cell-based
[2] = tested on: SIV integrase E92Q (SIV IN RTV pseudovirus); type: cell-based; conditions: E92Q SIV integrase mutant
[3] = tested on: SIV integrase G140R (SIV IN RTV pseudovirus); assay: organism not typed; type: cell-based; conditions: HEK293
[4] = tested on: SIV integrase Q124R (SIV IN RTV pseudovirus); assay: organism not typed; type: cell-based
[5] = tested on: SIV integrase A122T (SIV IN RTV pseudovirus); assay: organism not typed; type: cell-based
[6] = tested on: SIV integrase G118R (SIV IN RTV pseudovirus); type: cell-based; conditions: G118R SIV integrase mutant
[7] = tested on: SIV integrase G118R/A122T (SIV IN RTV pseudovirus); type: cell-based; conditions: G118R/A122T SIV integrase mutant
[8] = tested on: SIV integrase I72T (SIV IN RTV pseudovirus); assay: organism not typed; type: cell-based
[9] = tested on: SIV integrase I110V (SIV IN RTV pseudovirus); assay: organism not typed; type: cell-based
[10] = tested on: SIV integrase I250V (SIV IN RTV pseudovirus); assay: organism not typed; type: cell-based
[11] = tested on: SIV integrase E92G (SIV IN RTV pseudovirus)
[12] = for Median CAB: plasma, median of treated macaques
Procedure: (§1) CAB LA (200 mg/mL injectable stock aqueous suspension) was given at a dose of 50 mg kg^−1 under anesthesia by intramuscular injection into the quadriceps. Volumes greater than 1.0 mL were divided into two injection sites.

[13] = time course, day given in the Days column, CAB LA 50 mg/kg i.m. days 11, 39, 67, LLOQ 10 ng ml^-1
Procedure: as §1

HIV-1 = conditions: read-out: 50% inhibitory concentration (IC50); cited from earlier work
[14] = ECLAIR trial; cited from earlier work

C[C@H]1CO[C@@H]2Cn3cc(C(=O)NCc4ccc(F)cc4F)c(=O)c(O)c3C(=O)N12 [CAB, cabotegravir]
EC50 ([1]; HEK293): 1.19 nM | fold-change relative to wild type integrase ([1]; WT SIV integrase): 1 fold | fold-change relative to wild type integrase [2]: 2.5 fold | EC50 [3]: > 1000 nM | EC50 ([4]; HEK293): 1.22 nM | fold-change relative to wild type integrase ([4]; {}): 1.0 fold | EC50 ([5]; HEK293): 1.51 nM | fold-change relative to wild type integrase ([5]; {}): 1.3 fold | fold-change relative to wild type integrase [6]: > 840 fold | fold-change relative to wild type integrase [7]: > 840 fold | EC50 ([8]; HEK293): 0.96 nM | fold-change relative to wild type integrase ([8]; {}): 0.8 fold | EC50 ([9]; HEK293): 1.27 nM | fold-change relative to wild type integrase ([9]; {}): 1.1 fold | EC50 ([10]; HEK293): 1.04 nM | fold-change relative to wild type integrase ([10]; {}): 0.9 fold | EC50 [11]: 4.2 nM | fold-change relative to wild type integrase [11]: 3.5 fold | time after which plasma CAB was below the limit of detection of the assay ([12]; four of the six animals): 115 to 176 days | Plasma CAB concentration ([12]; macaque 01D520, day 18): 11.2 µg/mL | Plasma CAB concentration ([12]; macaque 01D520, day 25): 7.1 µg/mL | Plasma CAB concentration ([12]; macaque 01D520, day 32): 2.24 µg/mL | Plasma CAB concentration ([12]; macaque 01D520, day 39): 0.239 µg/mL | Plasma CAB concentration ([12]; macaque 01D520, day 46): 6.87 µg/mL | Plasma CAB concentration ([12]; macaque 01D520, day 53): 5.88 µg/mL | Plasma CAB concentration ([12]; macaque 01D520, day 57): 4.57 µg/mL | Plasma CAB concentration ([12]; macaque 01D520, day 67): 0.943 µg/mL | Plasma CAB concentration ([12]; macaque 01D520, day 74): 6.2 µg/mL | Plasma CAB concentration ([12]; macaque 01D520, day 81): 4.17 µg/mL | Plasma CAB concentration ([12]; macaque 01D520, day 88): 2.42 µg/mL | Plasma CAB concentration ([12]; macaque 01D520, day 95): 0.992 µg/mL | Plasma CAB concentration ([12]; macaque 01D520, day 102): 0.432 µg/mL | Plasma CAB concentration ([12]; macaque 01D520, day 106): 0.273 µg/mL | Plasma CAB concentration ([12]; macaque 10D181, day 18): 3.2 µg/mL | Plasma CAB concentration ([12]; macaque 10D181, day 25): 3.88 µg/mL | Plasma CAB concentration ([12]; macaque 10D181, day 32): 2.79 µg/mL | Plasma CAB concentration ([12]; macaque 10D181, day 39): 1.33 µg/mL | Plasma CAB concentration ([12]; macaque 10D181, day 46): 3.45 µg/mL | Plasma CAB concentration ([12]; macaque 10D181, day 53): 5.06 µg/mL | Plasma CAB concentration ([12]; macaque 10D181, day 57): 3.47 µg/mL | Plasma CAB concentration ([12]; macaque 10D181, day 67): 1.51 µg/mL | Plasma CAB concentration ([12]; macaque 10D181, day 74): 2.76 µg/mL | Plasma CAB concentration ([12]; macaque 10D181, day 81): 3.57 µg/mL | Plasma CAB concentration ([12]; macaque 10D181, day 88): 2.78 µg/mL | Plasma CAB concentration ([12]; macaque 10D181, day 95): 1.5 µg/mL | Plasma CAB concentration ([12]; macaque 10D181, day 102): 0.454 µg/mL | Plasma CAB concentration ([12]; macaque 10D181, day 106): 0.227 µg/mL | Plasma CAB concentration ([12]; macaque 33996, day 18): 5.68 µg/mL | Plasma CAB concentration ([12]; macaque 33996, day 25): 6.38 µg/mL | Plasma CAB concentration ([12]; macaque 33996, day 32): 4.05 µg/mL | Plasma CAB concentration ([12]; macaque 33996, day 39): 3.3 µg/mL | Plasma CAB concentration ([12]; macaque 33996, day 46): 5.86 µg/mL | Plasma CAB concentration ([12]; macaque 33996, day 53): 9.39 µg/mL | Plasma CAB concentration ([12]; macaque 33996, day 57): 9.76 µg/mL | Plasma CAB concentration ([12]; macaque 33996, day 67): 1.4 µg/mL | Plasma CAB concentration ([12]; macaque 33996, day 74): 4.57 µg/mL | Plasma CAB concentration ([12]; macaque 33996, day 81): 6.04 µg/mL | Plasma CAB concentration ([12]; macaque 33996, day 88): 3.04 µg/mL | Plasma CAB concentration ([12]; macaque 33996, day 95): 1.43 µg/mL | Plasma CAB concentration ([12]; macaque 33996, day 102): 0.816 µg/mL | Plasma CAB concentration ([12]; macaque 33996, day 106): 0.611 µg/mL | Plasma CAB concentration ([12]; macaque 35451, day 18): 6.34 µg/mL | Plasma CAB concentration ([12]; macaque 35451, day 25): 4.47 µg/mL | Plasma CAB concentration ([12]; macaque 35451, day 32): 1.84 µg/mL | Plasma CAB concentration ([12]; macaque 35451, day 39): 0.819 µg/mL | Plasma CAB concentration ([12]; macaque 35451, day 46): 2.55 µg/mL | Plasma CAB concentration ([12]; macaque 35451, day 53): 4.01 µg/mL | Plasma CAB concentration ([12]; macaque 35451, day 57): 6.17 µg/mL | Plasma CAB concentration ([12]; macaque 35451, day 67): 3.19 µg/mL | Plasma CAB concentration ([12]; macaque 35451, day 74): 4.1 µg/mL | Plasma CAB concentration ([12]; macaque 35451, day 81): 2.89 µg/mL | Plasma CAB concentration ([12]; macaque 35451, day 88): 3.28 µg/mL | Plasma CAB concentration ([12]; macaque 35451, day 95): 2.43 µg/mL | Plasma CAB concentration ([12]; macaque 35451, day 102): 2.21 µg/mL | Plasma CAB concentration ([12]; macaque 35451, day 106): 1.25 µg/mL | Plasma CAB concentration ([12]; macaque CH54, day 18): 5.12 µg/mL | Plasma CAB concentration ([12]; macaque CH54, day 25): 5.14 µg/mL | Plasma CAB concentration ([12]; macaque CH54, day 32): 3.53 µg/mL | Plasma CAB concentration ([12]; macaque CH54, day 39): 1.14 µg/mL | Plasma CAB concentration ([12]; macaque CH54, day 46): 2.99 µg/mL | Plasma CAB concentration ([12]; macaque CH54, day 53): 2.32 µg/mL | Plasma CAB concentration ([12]; macaque CH54, day 57): 3.27 µg/mL | Plasma CAB concentration ([12]; macaque CH54, day 67): 4.33 µg/mL | Plasma CAB concentration ([12]; macaque CH54, day 74): 5.39 µg/mL | Plasma CAB concentration ([12]; macaque CH54, day 81): 5.03 µg/mL | Plasma CAB concentration ([12]; macaque CH54, day 88): 3.45 µg/mL | Plasma CAB concentration ([12]; macaque CH54, day 95): 1.97 µg/mL | Plasma CAB concentration ([12]; macaque CH54, day 102): 1.41 µg/mL | Plasma CAB concentration ([12]; macaque CH54, day 106): 0.707 µg/mL | Plasma CAB concentration ([12]; macaque CJ92, day 18): 6.99 µg/mL | Plasma CAB concentration ([12]; macaque CJ92, day 25): 3.55 µg/mL | Plasma CAB concentration ([12]; macaque CJ92, day 32): 3.13 µg/mL | Plasma CAB concentration ([12]; macaque CJ92, day 39): 2.92 µg/mL | Plasma CAB concentration ([12]; macaque CJ92, day 46): 3.62 µg/mL | Plasma CAB concentration ([12]; macaque CJ92, day 53): 2.88 µg/mL | Plasma CAB concentration ([12]; macaque CJ92, day 57): 3.47 µg/mL | Plasma CAB concentration ([12]; macaque CJ92, day 67): 3.7 µg/mL | Plasma CAB concentration ([12]; macaque CJ92, day 74): 5.46 µg/mL | Plasma CAB concentration ([12]; macaque CJ92, day 81): 6.56 µg/mL | Plasma CAB concentration ([12]; macaque CJ92, day 88): 4.022 µg/mL | Plasma CAB concentration ([12]; macaque CJ92, day 95): 1.93 µg/mL | Plasma CAB concentration ([12]; macaque CJ92, day 102): 1.54 µg/mL | Plasma CAB concentration ([12]; macaque CJ92, day 106): 0.994 µg/mL | Median CAB ([12]; day 18): 6.01 µg/mL | Median CAB ([12]; day 25): 4.805 µg/mL | Median CAB ([12]; day 32): 2.96 µg/mL | Median CAB ([12]; day 39): 1.235 µg/mL | Median CAB ([12]; day 46): 3.535 µg/mL | Median CAB ([12]; day 53): 4.535 µg/mL | Median CAB ([12]; day 57): 4.02 µg/mL | Median CAB ([12]; day 67): 2.35 µg/mL | Median CAB ([12]; day 74): 4.98 µg/mL | Median CAB ([12]; day 81): 4.6 µg/mL | Median CAB ([12]; day 88): 3.16 µg/mL | Median CAB ([12]; day 95): 1.715 µg/mL | Median CAB ([12]; day 102): 1.113 µg/mL | Median CAB ([12]; day 106): 0.659 µg/mL | CAB in plasma at the last measurement on day 204 ([12]; remaining two animals): detectable | Vaginal fluid CAB concentration in treated macaques ([13]; macaque 10D181): 0.009 µg/mL | Vaginal fluid CAB concentration in treated macaques ([13]; macaque 33996): 0.009 µg/mL | IC50 (HIV-1): ~0.22 nM | subjects with CAB still detectable 52 weeks after the last injection [14]: 14%
